Data from paper PMC9737644, “Facile Synthesis of Some Coumarin Derivatives and Their Cytotoxicity through VEGFR2 and Topoisomerase II Inhibition” (Molecules, 2022).
Where a name gives a salt, the structure may show the parent alone. Read-outs that look alike come from different tables or passages of the source.

Key:
Topoisomerase II = Topoisomerase II (Homo sapiens, UniProt P11388); assay: Topoisomerase II screening kit
VEGFR2 (KDR) = VEGFR2 (KDR) (Homo sapiens, UniProt P35968); assay: biochemical
HepG2 cells = assay: Cytotoxicity using MTT assay, HepG2; format: cell-based; settings: read-out: IC50 cytotoxicity against HepG2
Experimental: (§1) Breast cancer (MCF-7) and liver cancer (HepG2) cell lines were collected from National Cancer Institute in Cairo and grown in “RPMI-1640 medium L-Glutamine. The cells were grown in 10% fetal bovine serum (FBS) and 1% penicillin-streptomycin using standard tissue culture protocol. On the second day, cells were grown in triplicate on a 96-well plate at a density of 5 × 10^4 cells and incubated with the investigated compounds at “0.01, 0.1, 1, 10, and 100 µM”. Cell viabilioty was measured with MTT solution. The absorbance was measured using an ELISA microplate reader. After comparing the treated groups to the control, the IC50 values were recorded to indicate the level of viability following previous work.

MCF-7 cells = assay: Cytotoxicity using MTT assay, MCF-7; format: cell-based; settings: for IC50: Homo sapiens, MCF7, 48 h, 48 h, read-out: IC50 cytotoxicity against MCF-7; for cell death: MCF-7 cells
Experimental: as §1

Chain of Topoisomerase II (P11388 whole entry): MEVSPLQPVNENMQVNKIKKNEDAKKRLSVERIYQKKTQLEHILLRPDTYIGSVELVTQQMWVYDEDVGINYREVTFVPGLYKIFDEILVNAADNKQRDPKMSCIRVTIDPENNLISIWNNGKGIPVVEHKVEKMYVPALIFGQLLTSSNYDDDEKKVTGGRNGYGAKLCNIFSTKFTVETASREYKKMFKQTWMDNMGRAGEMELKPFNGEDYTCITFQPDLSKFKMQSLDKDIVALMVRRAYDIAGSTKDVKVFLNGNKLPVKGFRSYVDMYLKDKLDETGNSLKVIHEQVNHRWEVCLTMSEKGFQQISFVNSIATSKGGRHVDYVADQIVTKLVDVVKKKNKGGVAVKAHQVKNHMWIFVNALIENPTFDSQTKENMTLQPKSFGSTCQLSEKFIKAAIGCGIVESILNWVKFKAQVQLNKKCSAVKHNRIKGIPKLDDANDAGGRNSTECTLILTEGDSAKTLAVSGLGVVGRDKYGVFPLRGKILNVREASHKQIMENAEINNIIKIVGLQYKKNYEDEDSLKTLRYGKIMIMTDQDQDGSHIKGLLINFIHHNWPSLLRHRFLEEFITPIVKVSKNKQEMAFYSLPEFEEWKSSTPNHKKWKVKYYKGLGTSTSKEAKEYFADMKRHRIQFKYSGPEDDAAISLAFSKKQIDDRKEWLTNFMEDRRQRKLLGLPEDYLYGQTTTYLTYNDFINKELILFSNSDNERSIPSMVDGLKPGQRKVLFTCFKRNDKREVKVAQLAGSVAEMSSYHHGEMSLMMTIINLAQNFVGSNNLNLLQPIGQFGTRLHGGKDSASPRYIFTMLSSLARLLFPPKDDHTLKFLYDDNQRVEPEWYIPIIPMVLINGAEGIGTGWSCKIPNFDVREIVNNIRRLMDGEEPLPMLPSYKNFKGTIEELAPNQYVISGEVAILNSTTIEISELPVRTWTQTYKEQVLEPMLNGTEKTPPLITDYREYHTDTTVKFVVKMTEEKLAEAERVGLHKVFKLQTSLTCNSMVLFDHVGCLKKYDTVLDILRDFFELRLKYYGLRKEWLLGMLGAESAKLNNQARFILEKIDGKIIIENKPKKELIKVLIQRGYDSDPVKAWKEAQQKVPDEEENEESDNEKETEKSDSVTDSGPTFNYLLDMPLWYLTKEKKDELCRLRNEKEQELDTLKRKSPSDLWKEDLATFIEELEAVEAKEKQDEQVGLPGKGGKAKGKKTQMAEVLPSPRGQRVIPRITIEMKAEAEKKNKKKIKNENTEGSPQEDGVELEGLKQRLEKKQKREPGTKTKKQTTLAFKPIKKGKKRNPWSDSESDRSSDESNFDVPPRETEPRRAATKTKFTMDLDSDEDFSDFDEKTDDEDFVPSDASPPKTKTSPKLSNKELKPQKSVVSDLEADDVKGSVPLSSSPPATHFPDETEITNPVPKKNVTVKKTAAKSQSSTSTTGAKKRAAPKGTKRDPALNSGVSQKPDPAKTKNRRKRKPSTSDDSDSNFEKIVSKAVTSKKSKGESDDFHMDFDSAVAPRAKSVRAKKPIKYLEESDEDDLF
Chain of VEGFR2 (KDR) (P35968 20-1356): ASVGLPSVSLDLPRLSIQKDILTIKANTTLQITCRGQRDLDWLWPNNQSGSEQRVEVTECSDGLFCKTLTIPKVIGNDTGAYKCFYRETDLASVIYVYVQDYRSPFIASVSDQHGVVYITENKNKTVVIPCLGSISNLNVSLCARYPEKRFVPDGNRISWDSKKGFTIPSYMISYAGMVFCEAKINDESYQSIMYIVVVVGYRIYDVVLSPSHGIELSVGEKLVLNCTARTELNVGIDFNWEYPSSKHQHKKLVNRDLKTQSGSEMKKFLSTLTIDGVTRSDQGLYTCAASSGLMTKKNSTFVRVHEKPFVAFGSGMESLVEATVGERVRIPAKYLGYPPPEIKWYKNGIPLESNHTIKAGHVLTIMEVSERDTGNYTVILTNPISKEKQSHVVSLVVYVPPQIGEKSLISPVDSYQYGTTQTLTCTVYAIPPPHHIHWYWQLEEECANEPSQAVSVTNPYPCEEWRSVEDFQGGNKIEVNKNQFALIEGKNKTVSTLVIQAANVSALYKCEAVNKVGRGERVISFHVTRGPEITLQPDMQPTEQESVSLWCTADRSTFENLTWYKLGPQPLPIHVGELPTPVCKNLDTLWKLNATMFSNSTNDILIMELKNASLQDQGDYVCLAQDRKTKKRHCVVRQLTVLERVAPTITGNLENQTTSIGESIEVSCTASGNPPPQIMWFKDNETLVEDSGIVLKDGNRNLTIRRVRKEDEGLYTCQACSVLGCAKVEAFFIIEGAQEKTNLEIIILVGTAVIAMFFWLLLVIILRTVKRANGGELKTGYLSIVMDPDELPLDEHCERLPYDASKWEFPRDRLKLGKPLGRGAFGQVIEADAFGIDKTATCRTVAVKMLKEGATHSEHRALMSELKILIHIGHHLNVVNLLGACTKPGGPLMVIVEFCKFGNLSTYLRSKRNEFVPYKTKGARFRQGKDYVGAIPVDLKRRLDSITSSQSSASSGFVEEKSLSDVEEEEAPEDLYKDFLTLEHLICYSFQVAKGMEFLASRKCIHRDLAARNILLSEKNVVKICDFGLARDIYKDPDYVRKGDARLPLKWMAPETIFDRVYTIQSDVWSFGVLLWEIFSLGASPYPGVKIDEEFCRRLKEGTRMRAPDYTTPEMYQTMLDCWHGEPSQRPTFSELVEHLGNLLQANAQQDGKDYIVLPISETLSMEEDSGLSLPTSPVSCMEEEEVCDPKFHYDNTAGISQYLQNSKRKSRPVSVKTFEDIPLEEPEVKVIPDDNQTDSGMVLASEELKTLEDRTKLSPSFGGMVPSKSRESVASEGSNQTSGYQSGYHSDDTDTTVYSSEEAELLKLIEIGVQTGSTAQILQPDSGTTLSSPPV

SMILES | melting point [°C] | other results
COC(=O)C[C@H](NC(=O)c1cc2ccccc2oc1=O)C(=O)OC (as salt: succinate) [4g, Dimethyl 2-[(2-oxo-2H-chromene-3-carbonyl)-amino] succinate] | 69 to 71 | 
COC(=O)C(CCSC)NC(=O)CCNC(=O)c1cc2ccccc2oc1=O (stereo not shown) [6c, Methyl 4-methylsulfanyl-2-{3-[(2-oxo-2H-chromene-3-carbonyl)-amino]-propionylamino}-butanoate] |  | IC50 (Topoisomerase II): 8.6 ± 0.15 µM; IC50 (VEGFR2 (KDR)): 34.2 ± 1.06 µM; IC50 (HepG2 cells; 48 h): 33.8 µM; IC50 (HepG2 cells; Homo sapiens, HepG2, 48 h): 33.9 µM; IC50 (MCF-7 cells): 5.85 µM; cell death (MCF-7 cells): 97.35%
COC(=O)C(NC(=O)CCNC(=O)c1cc2ccccc2oc1=O)C(C)C (stereo not shown) [6b, Methyl 3-Methyl-2-{3-[(2-oxo-2H-chromene-3-carbonyl)-amino]-propionyl-amino}-butanoate] | 101 to 103 | 
COC(=O)[C@H](C)NC(=O)c1cc2ccccc2oc1=O [4b, Methyl 2-[(2-oxo-2H-chromene-3-carbonyl)-amino] propanoate] | 104 to 106 | 
COC(=O)C(Cc1ccc(O)cc1)NC(=O)c1cc2ccccc2oc1=O (stereo not shown) [4k, Methyl 3-(4-hydroxyphenyl)-2-[(2-oxo-2H-chromene-3-carbonyl)-amino]-propanoate] |  | IC50 (Topoisomerase II): 4.1 ± 0.64 µM; IC50 (VEGFR2 (KDR)): 23.6 ± 1.19 µM; IC50 (HepG2 cells; 48 h): 9.44 µM; IC50 (HepG2 cells; Homo sapiens, HepG2, 48 h): 9.4 µM; IC50 (MCF-7 cells): 4.98 µM; cell death (MCF-7 cells): 97.82%
COC(=O)CCNC(=O)c1cc2ccccc2oc1=O [4c, Methyl 3-[(2-oxo-2H-chromene-3-carbonyl)-amino] propanoate] | 135 to 137 | 
COC(=O)[C@H](CCSC)NC(=O)c1cc2ccccc2oc1=O [4i, Methyl 4-methylsulfanyl-2-[(2-oxo-2H-chromene-3-carbonyl)-amino] butanoate] | 81 to 83 | 
COC(=O)C(NC(=O)C(CCSC)NC(=O)c1cc2ccccc2oc1=O)C(C)C (stereo not shown) [8b, Methyl 3-methyl-2-{4-methylsulfanyl-2-[(2-oxo-2H-chromene-3-carbonyl)-amino]-butyrylamino}-butanoate] | 98 to 99 | 
COC(=O)[C@H](CCSC)NC(=O)[C@@H](NC(=O)c1cc2ccccc2oc1=O)C(C)C [7c, Methyl 2-{3-methyl-2-[(2-oxo-2H-chromene-3-carbonyl)-amino]-butyrylamino} -4-methylsulfanyl butanoate] | 100 to 101 | 
COC(=O)C(Cc1c[nH]c2ccccc12)NC(=O)c1cc2ccccc2oc1=O (stereo not shown) [4l, Methyl 3-(1H-Indol-3-yl)-2-[(2-oxo-2H-chromene-3-carbonyl)-amino]-propanoate] | 138 to 139 | 
COC(=O)CNC(=O)c1cc2ccccc2oc1=O (as salt: hydrochloride) [4a, Methyl [(2-oxo-2H-chromene-3-carbonyl)-amino] ethanoate] | 173 to 175 | 
COC(=O)C(NC(=O)c1cc2ccccc2oc1=O)c1ccccc1 (stereo not shown) [4j, Methyl [(2-oxo-2H-chromene-3-carbonyl)-amino]-phenylacetate] | 189 to 192 | 
CC(C)C(NC(=O)c1cc2ccccc2oc1=O)C(=O)O (stereo not shown) [5e, 3-Methyl-2-[(2-oxo-2H-chromene-3-carbonyl)-amino] butanoic acid] | 210 to 212 | 
COC(=O)C(CO)NC(=O)c1cc2ccccc2oc1=O (stereo not shown) [4d, Methyl 3-hydroxy-2-[(2-oxo-2H-chromene-3-carbonyl)-amino]-propanoate] | 177 to 179 | 
CSCCC(NC(=O)c1cc2ccccc2oc1=O)C(=O)O (stereo not shown) [5i, 4-Methylsulfanyl-2-[(2-oxo-2H-chromene-3-carbonyl)-amino]-butanoic acid] | 108 to 109 | 
COC(=O)CCNC(=O)C(NC(=O)c1cc2ccccc2oc1=O)C(C)C (stereo not shown) [7a, Methyl 3-{3-methyl-2-[(2-oxo-2H-chromene-3-carbonyl)-amino]-butyryl-amino}-propanoate] | 149 to 151 | 
COC(=O)C(CCSC)NC(=O)C(CCSC)NC(=O)c1cc2ccccc2oc1=O (stereo not shown) [8c, Methyl 4-methylsulfanyl-2-{4-methylsulfanyl-2-[(2-oxo-2H-chromene-3-carbonyl)-amino]-butyrylamino}-butanoate] | 109 to 111 | 
COC(=O)C(NC(=O)C(NC(=O)c1cc2ccccc2oc1=O)C(C)C)C(C)C (stereo not shown) [7b, Methyl 3-Methyl-2-{3-methyl-2-[(2-oxo-2H-chromene-3-carbonyl)-amino]-butyrylamino}-butanoate] | 97 to 99 | 
COC(=O)C(NC(=O)c1cc2ccccc2oc1=O)C(C)C (stereo not shown) [4e, Methyl 3-methyl-2-[(2-oxo-2H-chromene-3-carbonyl)-amino] butanoate] | 75 to 77 | 
COC(=O)CC[C@H](NC(=O)c1cc2ccccc2oc1=O)C(=O)OC [4h, Dimethyl 2-[(2-oxo-2H-chromene-3-carbonyl)-amino] pentanedioate] | 64 to 66 | 
COC(=O)CCNC(=O)CCNC(=O)c1cc2ccccc2oc1=O [6a, Methyl 3-{3-[(2-oxo-2H-chromene-3-carbonyl)-amino]-propionylamino} propanoate] | 127 to 128 | 
O=C(O)CCNC(=O)c1cc2ccccc2oc1=O [5c, 3-[(2-Oxo-2H-chromene-3-carbonyl)-amino]-propanoic acid] | 195 to 197 | 
COC(=O)[C@H](CC(C)C)NC(=O)c1cc2ccccc2oc1=O [4f, Methyl 4-methyl-2-[(2-oxo-2H-chromene-3-carbonyl)-amino] pentan-oate] | 95 to 97 | 
COC(=O)CCNC(=O)C(CCSC)NC(=O)c1cc2ccccc2oc1=O (stereo not shown) [8a, Methyl 3-{4-methylsulfanyl-2-[(2-oxo-2H-chromene-3-carbonyl)-amino]-butyrylamino}-propanoate] | 104 to 105 | 
